Experimental data from publication PMC3634896 (Bioorganic & medicinal chemistry letters, 2013).
Where “and” joins values, the source holds several entries; their conditions need not be identical. Equal entries are not always repeated.

Columns and labels:
M1-M4 [1] = assay: human mAChR selectivity versus M1-M4; type: cell-based; conditions: read-out: M1-M4 EC50s; human data is the same as rat
CYP = CYP profile; type: in vitro ADME
rat M5 = target: T1, rat M5 (Rattus norvegicus, UniProt P08911); assay: M5 PAM CRC, rat M5; type: cell-based
T1 sequence (P08911 1-531): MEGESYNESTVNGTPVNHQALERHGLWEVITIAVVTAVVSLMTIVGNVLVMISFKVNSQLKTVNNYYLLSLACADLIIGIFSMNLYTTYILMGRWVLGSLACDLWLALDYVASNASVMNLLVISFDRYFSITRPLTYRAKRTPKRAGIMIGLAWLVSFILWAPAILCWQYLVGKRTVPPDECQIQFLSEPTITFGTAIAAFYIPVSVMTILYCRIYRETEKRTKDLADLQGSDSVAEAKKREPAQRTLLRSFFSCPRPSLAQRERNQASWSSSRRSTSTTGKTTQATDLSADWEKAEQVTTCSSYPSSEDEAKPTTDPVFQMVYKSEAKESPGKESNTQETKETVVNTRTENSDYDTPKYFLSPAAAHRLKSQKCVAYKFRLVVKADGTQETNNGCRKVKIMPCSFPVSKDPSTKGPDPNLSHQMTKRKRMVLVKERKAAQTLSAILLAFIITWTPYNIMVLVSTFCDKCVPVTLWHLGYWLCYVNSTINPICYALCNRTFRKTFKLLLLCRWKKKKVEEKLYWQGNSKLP

[2] = ancillary pharmacology profile
human M5 = target: T2, human M5 (Homo sapiens, UniProt P08912); assay: M5 PAM concentration-response-curve; type: cell-based; conditions: Table 1, average of three independent experiments
T2 sequence (P08912 1-532): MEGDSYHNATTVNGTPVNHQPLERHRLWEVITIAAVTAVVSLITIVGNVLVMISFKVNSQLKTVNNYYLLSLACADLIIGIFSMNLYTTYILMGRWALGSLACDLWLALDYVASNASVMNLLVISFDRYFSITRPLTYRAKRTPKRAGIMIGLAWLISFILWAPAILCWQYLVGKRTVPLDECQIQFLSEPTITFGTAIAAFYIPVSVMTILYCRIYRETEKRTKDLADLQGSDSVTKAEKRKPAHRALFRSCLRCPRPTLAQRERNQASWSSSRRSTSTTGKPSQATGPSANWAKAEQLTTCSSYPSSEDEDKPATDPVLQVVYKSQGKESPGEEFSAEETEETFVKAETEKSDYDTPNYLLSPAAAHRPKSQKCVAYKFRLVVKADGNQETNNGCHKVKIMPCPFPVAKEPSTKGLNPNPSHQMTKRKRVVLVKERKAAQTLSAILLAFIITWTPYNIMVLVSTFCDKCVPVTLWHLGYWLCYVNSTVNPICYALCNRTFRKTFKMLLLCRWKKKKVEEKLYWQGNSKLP

M1-M4 [3] = assay: rat mAChR selectivity versus M1-M4; type: cell-based; conditions: read-out: M1-M4 EC50s; rat (Fig. 5C); text does not state species

| EC50 (M1-M4 [1]) [µM] | CYP profile (CYP) | EC50 (rat M5) [µM] | ancillary pharmacology profile [2] | pEC50±SEM (human M5) | EC50 (M1-M4 [3]) | SMILES |
| --- | --- | --- | --- | --- | --- | --- |
| > 30 | relatively clean | 0.5 | relatively clean | 6.39±0.04 | > 30 µM and < 30 µM | O=C1C(=O)N(CCOc2ccccc2)c2ccc(OC(F)(F)F)cc21 [ML326, 1-(2-phenoxyethyl)-5-(trifluoromethoxy)indoline-2,3-dione] |
| – | – | – | – | 6.35±0.04 | – | O=C1C(=O)N(CCOc2ccc(Cl)cc2)c2ccc(OC(F)(F)F)cc21 [Compound 19b] |
| – | – | – | – | 6.28±0.03 | – | Cc1cccc(OCCN2C(=O)C(=O)c3cc(OC(F)(F)F)ccc32)c1 [Compound 19d] |
